Results: US20230174571A1, “METHOD OF TREATING SHIP1-MEDIATED DISEASES USING PELOROL DERIVATIVES” (Zebrapeutics Inc., priority 2020, published 2023)

Assays:
SHIP1 and STAT3 [1] = target: T1, SHIP1 and STAT3 (Mus musculus, UniProt Q9ES52); test: In vitro pull down assay of His6-SHIP1 with STAT3; type: cell-based; conditions: J17 His6-SHIP1 cells; 100 ng/ml IL10 or IL6, 20 μM compound I-2; 5 minutes
T1 construct: expressed in transfected cells; host or cells: J17 (SHIP1-/- mouse BMDM-derived line), lentiviral transduction
T1 sequence (Q9ES52 1-1191): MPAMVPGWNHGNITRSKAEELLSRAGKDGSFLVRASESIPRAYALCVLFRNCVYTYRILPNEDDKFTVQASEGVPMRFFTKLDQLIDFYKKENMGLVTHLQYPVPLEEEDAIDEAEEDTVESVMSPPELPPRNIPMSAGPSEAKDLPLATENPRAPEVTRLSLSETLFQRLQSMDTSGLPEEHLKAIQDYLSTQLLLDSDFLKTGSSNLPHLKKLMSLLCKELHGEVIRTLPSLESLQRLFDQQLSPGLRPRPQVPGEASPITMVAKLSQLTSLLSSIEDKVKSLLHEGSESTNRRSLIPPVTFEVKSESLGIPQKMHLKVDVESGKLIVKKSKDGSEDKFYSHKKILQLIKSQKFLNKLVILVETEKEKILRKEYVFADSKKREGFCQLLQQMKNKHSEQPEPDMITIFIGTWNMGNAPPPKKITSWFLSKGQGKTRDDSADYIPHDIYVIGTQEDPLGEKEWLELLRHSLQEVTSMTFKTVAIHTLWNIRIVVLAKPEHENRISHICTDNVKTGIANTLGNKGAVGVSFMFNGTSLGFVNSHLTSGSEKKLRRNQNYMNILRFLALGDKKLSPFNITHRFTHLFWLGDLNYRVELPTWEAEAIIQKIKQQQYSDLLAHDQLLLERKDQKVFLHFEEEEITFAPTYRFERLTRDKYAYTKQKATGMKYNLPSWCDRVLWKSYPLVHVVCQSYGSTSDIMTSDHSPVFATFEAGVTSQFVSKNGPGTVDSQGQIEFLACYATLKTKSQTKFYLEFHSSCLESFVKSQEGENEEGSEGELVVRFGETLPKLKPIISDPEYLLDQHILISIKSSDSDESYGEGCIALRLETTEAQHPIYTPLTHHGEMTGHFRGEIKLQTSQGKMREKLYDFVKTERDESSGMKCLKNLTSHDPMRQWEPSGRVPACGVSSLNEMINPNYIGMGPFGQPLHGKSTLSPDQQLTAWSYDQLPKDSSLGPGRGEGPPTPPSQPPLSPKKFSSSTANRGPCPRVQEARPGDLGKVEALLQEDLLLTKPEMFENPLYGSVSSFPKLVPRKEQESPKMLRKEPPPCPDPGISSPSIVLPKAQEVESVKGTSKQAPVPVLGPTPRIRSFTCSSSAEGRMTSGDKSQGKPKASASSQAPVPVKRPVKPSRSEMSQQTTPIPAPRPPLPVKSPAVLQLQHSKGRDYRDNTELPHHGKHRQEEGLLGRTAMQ
Protocol: In vitro pull down assay. J17 His6-SHIP1 and Y190F cells were seeded at 2×10^6 cells per well in a 6-well plate. After overnight incubation, fresh cell media was added for 30 minutes before stimulation with 100 ng/ml IL10, […] or 20 μM compound I-2 for 5 minutes. Cells were lysed with Protein Solubilization Buffer (PSB, 50 mM Hepes, pH 7.5, […], 10 mM Na Pyrophosphate, 2 mM NaVO4, 2 mM Na Molybdate, 2 mM EDTA) containing 1% octylglucoside, 0.01 M imidazole, and protease inhibitor cocktail (Roche Diagnostics, Laval, QC) for 30 minutes at 4° C. and centrifuged at 10000 rpm for 15 minutes. EDTA resistant Ni beads (Roche Diagnostics, Laval, QC) were added to supernatants and the mixture incubated at 4° C. for 1 hour before spinning down and washing of beads three times with 0.1% octylglucoside wash buffer in PSB. Bead samples and starting material cell lysates were separated on a 7.5% SDS-PAGE gel.
Immunoblotting. Protein lysates were separated on SDS-PAGE gels and transferred onto polyvinylidene fluoride (PVDF) membrane (Millipore, Etobicoke, ON). Membranes were blocked and probed, where appropriate, with the following primary antibodies overnight: SHIP1 (P1C1) (Santa Cruz Biotechnology), pSHIP1 (Y190) (Kinexus), STAT3 (9D8) (ThermoFisher Scientific), pSTAT3 (Y705) (Thermo Fisher Scientific), STAT1 (BD Transduction Laboratories), pSTAT1 (Y701) (Upstate Biotechnology), GAPDH and actin (Sigma-Aldrich). Membranes were developed with either Alexa Fluor® 660 anti-mouse IgG or Alexa Fluor® 680 anti-rabbit IgG antibodies (Thermo Fisher Scientific) and imaged using a LI-COR Odyssey Imager.

SHIP1 and STAT3 [2] = target: T1, SHIP1 and STAT3; test: Immunofluorescence of SHIP1 and STAT3 subcellular localization in peritoneal macrophages; type: cell-based; conditions: for membrane association of SHIP1 and STAT3 / nuclear localization of SHIP1 and STAT3: wild-type perimacs, 100 ng/ml IL10 or 20 μM I-2; for membrane association of SHIP1 and STAT3: 2 min; for nuclear localization of SHIP1 and STAT3: 20 min
Protocol: Isolation of mouse peritoneal macrophages. Primary peritoneal macrophages (perimacs) were isolated from mice by peritoneal lavage with 3 ml of sterile Phosphate Buffered Saline (PBS) (Thermo Fisher Scientific, Nepean, ON). Perimacs were collected and transferred to Mac media.
Immunofluorescence. Perimacs were seeded at 3×10^5 cells per well in 18-well Ibidi p-Slides (Ibidi GmbH, Martinsried, Germany) and allowed to adhere for 3 hours before washing with PBS to remove non-adherent cells. CD8+ T cells were seeded at 2×10^6 cells in 12-well tissue culture plates. Cells were stimulated with either 100 ng/ml IL10 or 20 μM compound I-2 for 2 or 20 minutes followed by 3×PBS washes and fixing of cells in 4% paraformaldehyde for 15 minutes at room temperature. Cells were incubated with anti-mouse CD16/CD32 Fc Block (BD Pharmingen) for 1 hour followed by an overnight incubation at 4° C. with either anti-SHIP1 antibody (P1C1) (Santa Cruz Biotechnology) or anti-STAT3 antibody (9D8) (ThermoFisher Scientific). Cells were then incubated with anti-mouse IgG (H+L)-Alexa Fluor 660 secondary antibody (ThermoFisher Scientific) for 1 hour, followed by, for perimacs, anti-CD11b-FITC antibody (BD Pharmingen) for 30 minutes. CD8+ T cells were mounted onto 18-well Ibidi p-Slides prior to confocal microscopy and cells were stored in Ibidi Mounting Media supplemented with ProLong Gold antifade reagent with DAPI (Molecular Probes, Life Technologies). Cells were imaged on a Leica SP5II on DM6000 confocal microscope with a 63×/1.4-0.6 Oil PL APO objective using 405, 488 and 633 nm laser lines for excitation. Final images were scanned sequentially acquiring eight Z-stacks with a frame-average of four. Co-localization analysis was performed using ImageJ software by first combining individual z-stack confocal images then performing deconvolution and co-localization using CUDA deconvolution and JACoP plugins respectively. Pearson's coefficient values were produced as a measurement of the degree of overlap between SHIP1 or STAT3 with CD11b (for Perimacs) or DAPI.

## IL10: anti-inflammatory cytokine interleukin-10
SHIP1 and STAT3 [1]
  association (co-precipitation) of SHIP1 and STAT3: resulted in co-precipitation of SHIP1 with STAT3
SHIP1 and STAT3 [2]
  membrane association of SHIP1 and STAT3: induced membrane association of both SHIP1 and STAT3
  nuclear localization of SHIP1 and STAT3: both SHIP1 and STAT3 are found in the nucleus

## CC12CCC3C(C)(C)C(N)CCC3(C)C1Cc1cc(O)cc(O)c12 (centres unmarked) [Compound I-2]
SHIP1 and STAT3 [1]
  association (co-precipitation) of SHIP1 and STAT3: sufficient to induce association of SHIP1 and STAT3
SHIP1 and STAT3 [2]
  membrane association of SHIP1 and STAT3: induced membrane association of both SHIP1 and STAT3
  nuclear localization of SHIP1 and STAT3: both SHIP1 and STAT3 are found in the nucleus

## Cc1cc(O)cc2c1C1(C)CCC3C(C)(C)CCCC3(C)C1C2 (centres unmarked) [Compound I-1]
SHIP1 and STAT3 [1]
  association (co-precipitation) of SHIP1 and STAT3: could by itself induce formation of a SHIP1/STAT3 complex
SHIP1 and STAT3 [2]; peritoneal macrophages
  mimicry of IL10 with respect to SHIP1 and STAT3 translocations: can mimic IL10
